Measurements taken from patent publication US6649379B1, “Method and deregulated enzyme for threonine production” (priority 1987, dated 2003).

Key:
homoserine dehydrogenase [1] = target: T1, homoserine dehydrogenase (Corynebacterium glutamicum, UniProt P08499); test: Homoserine dehydrogenase activity in crude cell extracts (initial decrease in absorbance at 340 nm by NADPH); format: biochemical, C. glutamicum
T1 construct: Crude cell lysates for homoserine dehydrogenase assays were prepared from 500 ml MMCG C. glutamicum AS019 and R102 cultures; endogenous in cells; host or cells: C. glutamicum AS019 and AS019E12/pMF33 (chromosomal wild-type hom); R102 (chromosomal hom^dr); AS019E12/pJD4 (plasmid-borne hom^dr beside chromosomal wild-type hom)
Protocol: Verified pJD4/AS019EI2 transformants were selected for the presence of the plasmid by growth on kanamycin supplemented mediums. The activity of the homoserine dehydrogenase from crude cell extracts of these cultures was determined in the presence and absence of L-threonine. A host cell encoding wild type homoserine dehydrogenase would be inactivated in the presence of 10 mM L-threonine. […] Therefore, homoserine dehydrogenase activity in the presence of L-threonine was derived from the cloned hom^dr gene. The specific activity of the deregulated homoserine dehydrogenase is approximately the same as that reported for the C. glutamicum chromosomal hom gene (0.0450 μM ml^−1min^1) The cloned hom^dr gene product was functional even in the presence of 120 mM L-threonine.
One ml of the supernatant from an overnight 10 ml MMCG culture of an alpha-hydroxy-valerate tolerant C. glutamicum isolate was filter sterilized and added 1:10 to a fresh 10 ml MMCG medium. […] Growth of AS155 was determined by densitometry after a 24 hour incubation at 30° C. […] The activity of homoserine dehydrogenase in crude cell extracts of C. glutamicum R102 and AS019 in the presence of both threonine and alpha-hydroxy-valerate was measured. […] Homoserine dehydrogenase activity was assayed by determining the initial decrease in the absorbance at 340 nm by NADPH as described by Follettie et al., Mol. Microbiol. […]

[2] = target: T2, homoserine dehydrogenase enzyme of C. glutamicum (Corynebacterium glutamicum, UniProt P08499); conditions: threonine inhibition of C. glutamicum homoserine dehydrogenase; read-out: inhibition rate constant (Ki); cited from earlier work
T2 sequence (P08499 1-445): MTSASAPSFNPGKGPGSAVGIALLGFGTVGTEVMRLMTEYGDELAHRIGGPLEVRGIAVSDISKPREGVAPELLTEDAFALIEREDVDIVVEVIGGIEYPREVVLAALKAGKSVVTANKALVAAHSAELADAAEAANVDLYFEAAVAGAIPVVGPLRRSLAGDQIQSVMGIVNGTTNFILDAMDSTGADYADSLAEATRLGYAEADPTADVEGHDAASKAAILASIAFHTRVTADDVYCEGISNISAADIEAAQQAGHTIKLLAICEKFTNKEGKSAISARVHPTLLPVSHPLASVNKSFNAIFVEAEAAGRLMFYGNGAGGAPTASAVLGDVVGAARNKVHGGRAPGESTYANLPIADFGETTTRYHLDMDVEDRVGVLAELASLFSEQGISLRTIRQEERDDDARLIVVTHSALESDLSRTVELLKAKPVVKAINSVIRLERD

homoserine dehydrogenase [3] = target: T3, homoserine dehydrogenase (Corynebacterium glutamicum, UniProt P08499); set-up: specific activity reported for the C. glutamicum chromosomal hom gene: unit not given here; conditions: reported value, cited from earlier work
T3 construct: Crude cell lysates for homoserine dehydrogenase assays were prepared from 500 ml MMCG C. glutamicum AS019 and R102 cultures; endogenous in cells; host or cells: C. glutamicum AS019 and AS019E12/pMF33 (chromosomal wild-type hom); R102 (chromosomal hom^dr); AS019E12/pJD4 (plasmid-borne hom^dr beside chromosomal wild-type hom)
T3 sequence (P08499 whole entry, looked up): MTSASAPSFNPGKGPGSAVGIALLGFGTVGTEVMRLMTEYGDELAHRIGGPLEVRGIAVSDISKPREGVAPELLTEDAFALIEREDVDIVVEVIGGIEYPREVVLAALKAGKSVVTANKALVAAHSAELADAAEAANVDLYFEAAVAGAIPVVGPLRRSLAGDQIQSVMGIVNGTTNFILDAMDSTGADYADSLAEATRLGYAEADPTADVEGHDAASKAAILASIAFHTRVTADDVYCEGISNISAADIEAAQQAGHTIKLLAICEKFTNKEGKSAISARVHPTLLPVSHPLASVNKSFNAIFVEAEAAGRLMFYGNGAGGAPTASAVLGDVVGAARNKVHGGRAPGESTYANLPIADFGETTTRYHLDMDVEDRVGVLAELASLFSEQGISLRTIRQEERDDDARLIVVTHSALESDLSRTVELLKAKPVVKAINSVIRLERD

For `C[C@@H](O)[C@H](N)C(=O)O` [L-threonine], the “effect of 10 mM L-threonine on wild type homoserine dehydrogenase” value (homoserine dehydrogenase [1]) is given as “inactivate” and the Ki [2] is given as 160 µM.

B1: wild type: wild type C. glutamicum homoserine dehydrogenase (SEQ ID NO:2) (protein)
chain: MTSASAPSFNPGKGPGSAVGIALLGFGTVGTEVMRLMTEYGDELAHRIGGPLEVRGIAVSDISKPREGVAPELLTEDAFALIEREDVDIVVEVIGGIEYPREVVLAALKAGKSVVTANKALVAAHSAELADAAEAANVDLYFEAAVAGAIPVVGPLRRSLAGDQIQSVMGIVNGTTNFILDAMDSTGADYADSLAEATRLGYAEADPTADVEGHDAASKAAILASIAFHTRVTADDVYCEGISNISAADIEAAQQAGHTIKLLAICEKFTNKEGKSAISARVHPTLLPVSHPLASVNKSFNAIFVEAEAAGRLMFYGNGAGGAPTASAVLGDVVGAARNKVHGGRAPGESTYANLPIADFGETTTRYHLDMDVEDRVGVLAELASLFSEQGISLRTIRQEERDDDARLIVVTHSALESDLSRTVELLKAKPVVKAINSVIRLERD
In the case of B1, the “specific activity reported for the C. glutamicum chromosomal hom gene” value (homoserine dehydrogenase [3]) is listed as 0.0450 and the “specific activity reported for wild type” value (homoserine dehydrogenase [3]; wild type homoserine dehydrogenase) is listed as 0.0450 μM ml^−1min^−1.
